Where a SMILES comes first, the peptide text is derived from it. Bridges are numbered along the chain shown (N, C = ends). [ ]: non-standard residue; d: D form. The star is where a group is joined. hPhe(3-Cl-4-CF3) = N[C@@H](CCc1ccc(C(F)(F)F)c(Cl)c1)C(=O)O; NPrPhe(4-CF3) = CCCN[C@@H](Cc1ccc(C(F)(F)F)cc1)C(=O)O; NMeGly(cPent) = CN[C@H](C(=O)O)C1CCCC1; Pro(4S-Me) = C[C@@H]1CN[C@H](C(=O)O)C1; NMeD = CN[C@@H](CC(=O)O)C(=O)O; NMeL = CN[C@@H](CC(C)C)C(=O)O; Morpholide = C1CN(*)CCO1; Ac5c = NC1(C(=O)O)CCCC1; Aze = O=C(O)[C@@H]1CCN1; Ac4c = NC1(C(=O)O)CCC1; Sar = CNCC(=O)O
Assays:
[1] = target: GDP-bound HRAS wild-type protein (Homo sapiens, UniProt P01112); assay: Binding to HRAS by surface plasmon resonance (SPR), Single Cycle Kinetics; details: SPR; for HRAS/KRAS (ratio of KD value with respect to HRAS to KD value with respect to KRAS): GDP-bound HRAS wild-type vs GDP-bound KRAS wild-type
Chain of GDP-bound HRAS wild-type protein (P01112 whole entry): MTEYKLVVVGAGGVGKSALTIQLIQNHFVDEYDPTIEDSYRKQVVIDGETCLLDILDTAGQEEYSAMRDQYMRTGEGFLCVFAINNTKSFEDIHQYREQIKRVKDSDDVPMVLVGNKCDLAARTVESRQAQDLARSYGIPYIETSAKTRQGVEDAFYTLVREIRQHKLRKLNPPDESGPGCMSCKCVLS

[2] = target: GDP-bound NRAS wild-type protein (Homo sapiens, UniProt P01111); assay: Binding to NRAS by surface plasmon resonance (SPR), Single Cycle Kinetics; details: SPR; for NRAS/KRAS (ratio of KD value with respect to NRAS to KD value with respect to KRAS): GDP-bound NRAS wild-type vs GDP-bound KRAS wild-type
Chain of GDP-bound NRAS wild-type protein (P01111 whole entry): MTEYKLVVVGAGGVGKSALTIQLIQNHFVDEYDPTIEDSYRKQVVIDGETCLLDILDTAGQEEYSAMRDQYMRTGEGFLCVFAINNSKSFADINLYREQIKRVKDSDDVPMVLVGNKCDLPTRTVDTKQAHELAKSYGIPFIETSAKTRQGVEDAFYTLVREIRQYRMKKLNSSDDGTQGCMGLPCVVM

CCCN1C(=O)CN(C)C(=O)CNC(=O)[C@H]([C@@H](C)CC)NC(=O)[C@H](CC(C)C)N(C)C(=O)C[C@@H](C(=O)N2CCOCC2)N(C)C(=O)[C@H](C2CCCC2)N(C)C(=O)C2(CCCC2)NC(=O)[C@@H]2C[C@H](C)CN2C(=O)[C@H](CCc2ccc(C(F)(F)F)c(Cl)c2)NC(=O)CN(C)C(=O)[C@@H]1Cc1ccc(C(F)(F)F)cc1 [PP0449] ([NMeL]IG[Sar][NPrPhe(4-CF3)][Sar][hPhe(3-Cl-4-CF3)][Pro(4S-Me)][Ac5c][NMeGly(cPent)][NMeD]-Morpholide; lactam N-11)
HRAS/KRAS (ratio of KD value with respect to GDP-bound HRAS wild-type protein to KD value with respect to KRAS) ([1]; KD ratio HRAS/KRAS): C (A compound having a KD ratio of 0.1 or more and less than 3 is denoted as C) | NRAS/KRAS (ratio of KD value with respect to GDP-bound NRAS wild-type protein to KD value with respect to KRAS) ([2]; KD ratio NRAS/KRAS): C (A compound having a KD ratio of 0.1 or more and less than 3 is denoted as C)

CCCN1C(=O)[C@@H]2CCN2C(=O)CN(C)C(=O)[C@H]([C@@H](C)CC)NC(=O)[C@H](CC(C)C)N(C)C(=O)C[C@@H](C(=O)N2CCOCC2)N(C)C(=O)[C@H](C2CCCC2)N(C)C(=O)C2(CCC2)NC(=O)[C@@H]2CCCN2C(=O)[C@H](CCc2ccc(C(F)(F)F)c(Cl)c2)NC(=O)CN(C)C(=O)[C@@H]1Cc1ccc(C(F)(F)F)cc1 [PP0407] ([NMeL]I[Sar][Aze][NPrPhe(4-CF3)][Sar][hPhe(3-Cl-4-CF3)]P[Ac4c][NMeGly(cPent)][NMeD]-Morpholide; lactam N-11)
HRAS/KRAS (ratio of KD for GDP-bound HRAS wild-type to KD for KRAS) ([1]; KD ratio HRAS/KRAS): B (a compound having 3 or more and less than 10 is denoted as B) | NRAS/KRAS (ratio of KD for GDP-bound NRAS wild-type to KD for KRAS) ([2]; KD ratio NRAS/KRAS): C (A compound having a KD ratio of 0.1 or more and less than 3 is denoted as C)

CC[C@H](C)[C@@H]1NC(=O)[C@H](CC(F)(F)F)N(C)C(=O)C[C@@H](C(=O)N2CCOCC2)N(C)C(=O)[C@H](C2CCCC2)N(C)C(=O)C2(CCCC2)NC(=O)[C@@H]2CCCN2C(=O)[C@H](CCc2cc(F)c(C(F)(F)F)c(F)c2)NC(=O)CN(C)C(=O)[C@H](Cc2ccc(C(F)(F)F)cc2)N2CCCC[C@@H](C2=O)N(C)C(=O)CN(C)C1=O [PP0594]
HRAS/KRAS (ratio of KD value with respect to GDP-bound HRAS wild-type protein to KD value with respect to KRAS) ([1]; KD ratio HRAS/KRAS): B (a compound having 3 or more and less than 10 is denoted as B) | NRAS/KRAS (ratio of KD value with respect to GDP-bound NRAS wild-type protein to KD value with respect to KRAS) ([2]; KD ratio NRAS/KRAS): C (A compound having a KD ratio of 0.1 or more and less than 3 is denoted as C)

CCO[C@@H]1C[C@H]2C(=O)NC3(CCC3)C(=O)N(C)[C@@H](C3CCCC3)C(=O)N(C)[C@H](C(=O)N3CCOCC3)CC(=O)N(C)[C@@H](CC3CC3)C(=O)N[C@@H]([C@@H](C)CC)C(=O)N(C)CC(=O)N(C)[C@H]3CCCCCN(C3=O)[C@@H](Cc3ccc(C(F)(F)F)cc3)C(=O)N(C)CC(=O)N[C@@H](CCc3cc(F)c(C(F)(F)F)c(F)c3)C(=O)N2C1 [PP0682]
HRAS/KRAS (ratio of KD value with respect to GDP-bound HRAS wild-type protein to KD value with respect to KRAS) ([1]; KD ratio HRAS/KRAS): B (a compound having 3 or more and less than 10 is denoted as B) | NRAS/KRAS (ratio of KD value with respect to GDP-bound NRAS wild-type protein to KD value with respect to KRAS) ([2]; KD ratio NRAS/KRAS): B (a compound having 3 or more and less than 10 is denoted as B)

CC[C@H](C)[C@@H]1NC(=O)[C@H](COC)N(C)C(=O)C[C@@H](C(=O)N2CCOCC2)N(C)C(=O)[C@H](C2CCCC2)N(C)C(=O)C2(CCCC2)NC(=O)[C@@H]2CC(F)(F)CN2C(=O)[C@H](CCc2cc(F)c(C(F)(F)F)c(F)c2)NC(=O)CN(C)C(=O)[C@H](Cc2ccc(C(F)(F)F)cc2)N2CCCCC[C@@H](C2=O)N(C)C(=O)CN(C)C1=O [PP0846]
HRAS/KRAS (ratio of KD value with respect to HRAS to KD value with respect to KRAS) ([1]; KD ratio): B (a compound having 3 or more and less than 10 is denoted as B) | NRAS/KRAS (ratio of KD value with respect to NRAS to KD value with respect to KRAS) ([2]; KD ratio): B (a compound having 3 or more and less than 10 is denoted as B)

CCO[C@@H]1C[C@H]2C(=O)NC3(CCC3)C(=O)N(C)[C@@H](C3CCCC3)C(=O)N(CC)[C@H](C(=O)N(C)C)CC(=O)N(C)[C@@H](CC)C(=O)N[C@@H]([C@@H](C)CC)C(=O)N(C)CC(=O)N(C)[C@H]3C/C=C\CCN(C3=O)[C@@H](Cc3ccc(C(F)(F)F)cc3)C(=O)N(C)CC(=O)N[C@@H](CCc3cc(F)c(C(F)(F)F)c(F)c3)C(=O)N2C1 [PP0980]
HRAS/KRAS (ratio of KD value with respect to HRAS to KD value with respect to KRAS) ([1]; KD ratio): B (a compound having 3 or more and less than 10 is denoted as B) | NRAS/KRAS (ratio of KD value with respect to NRAS to KD value with respect to KRAS) ([2]; KD ratio): A (a compound having 10 or more and less than 20 is denoted as A)

CCO[C@@H]1C[C@H]2C(=O)NC3(CCCC3)C(=O)N(C)[C@@H](C3CCCC3)C(=O)N(C)[C@H](C(=O)N(C)C)CC(=O)N(C)[C@@H](CC(C)C)C(=O)N[C@@H]([C@@H](C)CC)C(=O)N(C)CC(=O)N(C)[C@H]3C/C=C\CCN(C3=O)[C@@H](Cc3ccc(C)cc3)C(=O)N(C)CC(=O)N[C@@H](CCc3ccc(C(F)(F)F)c(Cl)c3)C(=O)N2C1 [PP2195]
HRAS/KRAS (ratio of KD value with respect to HRAS to KD value with respect to KRAS) [1]: A (a compound having 10 or more and less than 20 is denoted as A) | NRAS/KRAS (ratio of KD value with respect to NRAS to KD value with respect to KRAS) [2]: A (a compound having 10 or more and less than 20 is denoted as A)

Reference: patent US20250230193A1, “CYCLIC COMPOUND HAVING SELECTIVE KRAS INHIBITORY EFFECT ON HRAS AND NRAS” (CHUGAI SEIYAKU KABUSHIKI KAISHA, priority 2022, published 2025)
